According to ChEMBL document CHEMBL5344433, “Target Separation and Potential Anticancer Activity of Withanolide-Based Glucose Transporter Protein 1 Inhibitors from Physalis angulata var. villosa” (J Nat Prod, 2024):
One block for each compound: values may come before it. Active and inactive are the calls of the source. No cut-off for these calls is given here.

Legend:
[1] = test system: MCF7; assay: Induction of apoptosis in human MCF7 cells assessed as viable cells at 20 uM incubated for 24 hrs by Annexin V-FITC/7AAD staining based flow cytometery (reference value: 98.8%); assay type: functional; conditions: read-out: Activity
[2] = test system: MCF7; assay: Induction of apoptosis in human MCF7 cells assessed as necrotic cells at 10 uM incubated for 24 hrs by Annexin V-FITC/7AAD staining based flow cytometery (reference value: 0.019%); assay type: functional
[3] = test system: MCF7; assay: Anticancer activity against human MCF7 cells assessed as increase in cell necrosis at 20 uM incubated for 48 hrs relative to control; assay type: functional
[4] = test system: MCF7; assay: Anticancer activity against human MCF7 cells assessed as increase in cell apoptosis at 20 uM incubated for 48 hrs relative to control; assay type: functional
[5] = test system: MCF7; assay: Induction of apoptosis in human MCF7 cells assessed as late apoptotic cells at 10 uM incubated for 24 hrs by Annexin V-FITC/7AAD staining based flow cytometery (reference value: 0.68%); assay type: functional
[6] = test system: MCF7; assay: Induction of apoptosis in human MCF7 cells assessed as early apoptotic cells at 10 uM incubated for 24 hrs by Annexin V-FITC/7AAD staining based flow cytometery (reference value: 0.50%); assay type: functional
[7] = test system: MCF7; assay: Induction of apoptosis in human MCF7 cells assessed as viable cells at 10 uM incubated for 24 hrs by Annexin V-FITC/7AAD staining based flow cytometery (reference value: 98.8%); assay type: functional; conditions: read-out: Activity
[8] = test system: MCF7; assay: Induction of apoptosis in human MCF7 cells assessed as necrotic cells at 5 uM incubated for 24 hrs by Annexin V-FITC/7AAD staining based flow cytometery (reference value: 0.019%); assay type: functional
[9] = test system: MCF7; assay: Induction of apoptosis in human MCF7 cells assessed as late apoptotic cells at 5 uM incubated for 24 hrs by Annexin V-FITC/7AAD staining based flow cytometery (reference value: 0.68%); assay type: functional
[10] = test system: MCF7; assay: Induction of apoptosis in human MCF7 cells assessed as early apoptotic cells at 5 uM incubated for 24 hrs by Annexin V-FITC/7AAD staining based flow cytometery (reference value: 0.50%); assay type: functional
[11] = test system: MCF7; assay: Induction of apoptosis in human MCF7 cells assessed as viable cells at 5 uM incubated for 24 hrs by Annexin V-FITC/7AAD staining based flow cytometery (reference value: 98.8%); assay type: functional; conditions: read-out: Activity
[12] = test system: MCF7; assay: Induction of apoptosis in human MCF7 cells assessed as late apoptotic cells at 20 uM incubated for 24 hrs by Annexin V-FITC/7AAD staining based flow cytometery (reference value: 0.68%); assay type: functional
[13] = test system: MCF7; assay: Induction of apoptosis in human MCF7 cells assessed as necrotic cells at 20 uM incubated for 24 hrs by Annexin V-FITC/7AAD staining based flow cytometery (reference value: 0.019%); assay type: functional
[14] = test system: MCF7; assay: Induction of apoptosis in human MCF7 cells assessed as early apoptotic cells at 20 uM incubated for 24 hrs by Annexin V-FITC/7AAD staining based flow cytometery (reference value: 0.50%); assay type: functional
[15] = test system: MCF7; assay: Induction of cell cycle arrest in human MCF7 cells assessed as accumulation of cells at G2/M phase at 5 uM by propidium iodide staining based flow cytometry (reference value: 9.72%); assay type: functional; conditions: time 30 min, 0.5 h
[16] = biological target: T1, Solute carrier family 2, facilitated glucose transporter member 1 (Homo sapiens, UniProt P11166); assay: Binding affinity to GLUT1 (unknown origin) assessed as dissociation constant at 800 uM by MST assay
T1 sequence (P11166 whole entry): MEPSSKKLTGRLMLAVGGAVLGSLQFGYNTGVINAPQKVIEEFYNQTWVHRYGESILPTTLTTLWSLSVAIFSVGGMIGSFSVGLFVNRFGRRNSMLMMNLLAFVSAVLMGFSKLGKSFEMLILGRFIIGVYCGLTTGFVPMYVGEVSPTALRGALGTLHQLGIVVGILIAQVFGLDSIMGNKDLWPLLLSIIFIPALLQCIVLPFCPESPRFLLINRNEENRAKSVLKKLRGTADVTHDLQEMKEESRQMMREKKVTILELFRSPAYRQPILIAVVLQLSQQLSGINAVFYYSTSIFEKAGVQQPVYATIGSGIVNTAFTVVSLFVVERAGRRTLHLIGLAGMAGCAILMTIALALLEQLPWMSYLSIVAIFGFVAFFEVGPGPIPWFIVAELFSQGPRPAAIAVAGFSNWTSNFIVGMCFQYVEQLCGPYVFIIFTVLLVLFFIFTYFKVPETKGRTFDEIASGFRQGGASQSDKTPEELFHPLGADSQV

[17] = biological target: T2, Solute carrier family 2, facilitated glucose transporter member 1 (Homo sapiens) (UniProt P11166); assay: Inhibition of GLUT1 in human MCF7 cells assessed as reduction in GLUT1 degradation by CETSA assay; assay type: cell-based
T2 sequence (whole entry): T1 sequence (P11166 whole entry)

[18] = biological target: T2, Solute carrier family 2, facilitated glucose transporter member 1 (Homo sapiens); assay: Inhibition of human GLUT1 in HEK293FT cells assessed as reduction in glucose uptake at 10 uM incubated for 24 hrs and further incubated for 1 hr under dark condition by flow cytometry; assay type: cell-based; conditions: time 25.0 hrs
[19] = Cytotoxicity against human MCF7 cells assessed as reduction in cell viability incubated for 24 hrs by MTT assay; assay type: toxicity, cell-based
[20] = biological target: T1, Solute carrier family 2, facilitated glucose transporter member 1; assay: Inhibition of GLUT1 in human MCF7 cells assessed as ATP production incubated for 24 hrs in presence of 0.1 mM glucose; assay type: cell-based
[21] = biological target: T1, Solute carrier family 2, facilitated glucose transporter member 1; assay: Inhibition of GLUT1 in human MCF7 cells assessed as ATP production incubated for 24 hrs in presence of 10 mM glucose; assay type: cell-based
[22] = biological target: T2, Solute carrier family 2, facilitated glucose transporter member 1 (Homo sapiens); assay: Inhibition of GLUT1 in human MCF7 cells assessed as fold change at 5 uM by Western blot analysis; assay type: cell-based
[23] = biological target: T2, Solute carrier family 2, facilitated glucose transporter member 1 (Homo sapiens); assay: Inhibition of GLUT1 in human MCF7 cells assessed as fold change at 10 uM by Western blot analysis; assay type: cell-based
[24] = biological target: T2, Solute carrier family 2, facilitated glucose transporter member 1 (Homo sapiens); assay: Inhibition of GLUT1 in human MCF7 cells assessed as fold change at 20 uM by Western blot analysis; assay type: cell-based
[25] = biological target: T2, Solute carrier family 2, facilitated glucose transporter member 1 (Homo sapiens); assay: Inhibition of GLUT1 in human MCF7 cells assessed as reduction in lactate production measured after 24 hrs; assay type: cell-based; conditions: dose 5-20 µM
[26] = biological target: T2, Solute carrier family 2, facilitated glucose transporter member 1 (Homo sapiens); assay: Inhibition of GLUT1 in human MCF7 cells assessed as decrease in extracellular acidification rate at 5 to 20 uM measured for 24 hrs by Seahorse XFe96 analyzer; assay type: cell-based; conditions: dose 5-20 µM
[27] = biological target: T2, Solute carrier family 2, facilitated glucose transporter member 1 (Homo sapiens); assay: Inhibition of GLUT1 in human MCF7 cells assessed as reduction in maximal respiratory capacity at 5 to 20 uM incubated for 24 hrs by Seahorse XFe96 analyzer; assay type: cell-based; conditions: dose 5-20 µM
[28] = test system: MCF7; assay: Induction of oxidative stress in human MCF7 cells assessed as increase in intracellular ROS level at 5 to 20 uM incubated for 24 hrs; assay type: functional, cell-based; conditions: dose 5-20 µM
[29] = test system: MCF7; assay: Induction of oxidative stress in human MCF7 cells assessed as fold increase in intracellular ROS level at 20 uM incubated for 24 hrs; assay type: functional
[30] = test system: MCF7; assay: Induction of cell cycle arrest in human MCF7 cells assessed as accumulation of cells at G2/M phase at 10 uM by propidium iodide staining based flow cytometry (reference value: 9.72%); assay type: functional; conditions: time 30 min, 0.5 h
[31] = test system: MCF7; assay: Induction of cell cycle arrest in human MCF7 cells assessed as accumulation of cells at G2/M phase at 20 uM by propidium iodide staining based flow cytometry (reference value: 9.72%); assay type: functional; conditions: time 30 min, 0.5 h
[32] = biological target: T2, Solute carrier family 2, facilitated glucose transporter member 1 (Homo sapiens); assay: Agonist activity at GLUTI (unknown origin); conditions: filed as agonist
[33] = biological target: T2, Solute carrier family 2, facilitated glucose transporter member 1 (Homo sapiens); assay: Inhibition of GLUTI (unknown origin)

SMILES: CC(=O)O[C@H]1[C@@H]2O[C@]2([C@H](C)[C@H]2CC(CO)=C(C)C(=O)O2)[C@@]2(C)CCC3C(C[C@@H](O)[C@@]4(O)CC=CC(=O)[C@]34C)[C@@]12O (some centres not stated)
viability at 20 µM [1]: 24.2%
Activity [2]: 4.56%
Activity [3]: 60%
Activity [4]: 15%
Activity [5]: 46.7%
Activity [6]: 14.1%
viability at 10 µM [7]: 34.6%
Activity [8]: 3.84%
Activity [9]: 15%
Activity [10]: 5.76%
viability at 5 µM [11]: 75.4%
Activity [12]: 60%
Activity [13]: 0.92%
Activity [14]: 14.9%
Activity [15]: 11.3%
Kd [16]: 2.6 µM
inhibition [17]: Active
inhibition [18]: Active
IC50 at 24 h [19]: 18 µM
IC50 [20]: 3.46 µM
IC50 [21]: 180 µM
fold change (FC) [22]: 0.68
fold change (FC) [23]: 0.44
fold change (FC) [24]: 0.4
inhibition [25]: Dose-Dependent Effect
inhibition [26]: Active
inhibition [27]: Active
Activity [28]: Dose-Dependent Effect
fold change (FC) [29]: 2.8
Activity [30]: 22%
Activity [31]: 47.6%

SMILES: CC(=O)O[C@H]1C[C@@](O)([C@H](C)[C@H]2CC(C)=C(C)C(=O)O2)[C@@]2(C)CC[C@H]3[C@@H](C[C@H]4O[C@]45[C@@H](O)C=CC(=O)[C@]35C)[C@@]12O
Activity [32]: Active

SMILES: C[C@@]12C[C@H]3OC(=O)[C@@H]1CO[C@]14O[C@@]5([C@H]2C1=O)[C@@]3(C)OC(=O)[C@@]5(O)CC[C@H]1[C@H]4C[C@H]2O[C@]23CC=CC(=O)[C@]13C
Activity [32]: Active

SMILES: CC(=O)O[C@H]1C[C@H]([C@H](C)[C@@H]2OC(=O)C(C)=C(C)[C@@H]2O)[C@@]2(C)CCC3C(C[C@@H](O)[C@@]4(O)CC=CC(=O)[C@]34C)[C@@]12O (some centres not stated)
inhibition [33]: Active
Kd [16]: 2.4 µM
inhibition [17]: Active
Activity [32]: Active

SMILES: CC(=O)O[C@H]1C[C@@](O)([C@H](C)[C@H]2CC(C)=C(C)C(=O)O2)[C@@]2(C)CC[C@H]3[C@@H](C[C@H]4O[C@]45CC=CC(=O)[C@]35C)[C@@]12O
Kd [16]: 2.6 µM
inhibition [17]: Active
Activity [32]: Active

Activity [32]: Active
SMILES: CC(=O)O[C@H]1C=C([C@H](C)[C@H]2CC(C)=C(C)C(=O)O2)[C@@]2(C)CC[C@H]3[C@@H](C[C@H]4O[C@]45[C@@H](O)C=CC(=O)[C@]35C)[C@@]12O

SMILES: CC(=O)O[C@H]1C=C([C@H](C)[C@H]2CC(C)=C(C)C(=O)O2)[C@@]2(C)CC[C@H]3C(C[C@@H](O)[C@@]4(Cl)CC=CC(=O)[C@]34C)[C@]12O (some centres not stated)
inhibition [33]: Active
